Test results reported in PubChem BioAssay (NCI).
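Test compounds were applied to cells in 96-well plates for 48 hours at 5 doses. The concentration for 50% growth inhibition is given as GI50. At the TGI there is no net growth.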

Experiments:
Assay in all cases: NCI-60 cell line screen, 48 h
HT29 colon = system: HT29 colon
OVCAR-3 ovarian = system: OVCAR-3 ovarian
LOX IMVI melanoma = system: LOX IMVI melanoma
OVCAR-8 ovarian = system: OVCAR-8 ovarian
SF-295 CNS = system: SF-295 CNS
KM12 colon = system: KM12 colon
UACC-257 melanoma = system: UACC-257 melanoma
RXF 393 renal = system: RXF 393 renal
SK-OV-3 ovarian = system: SK-OV-3 ovarian
SW-620 colon = system: SW-620 colon
SK-MEL-28 melanoma = system: SK-MEL-28 melanoma
A549 NSCLC = system: A549 NSCLC
UACC-62 melanoma = system: UACC-62 melanoma
MDA-MB-468 breast = system: MDA-MB-468 breast
MOLT-4 leukemia = system: MOLT-4 leukemia
HCT-15 colon = system: HCT-15 colon
NCI/ADR-RES ovarian = system: NCI/ADR-RES ovarian
SF-539 CNS = system: SF-539 CNS
MDA-MB-435 = system: MDA-MB-435
T-47D breast = system: T-47D breast
NCI-H23 lung = system: NCI-H23 lung
TK-10 renal = system: TK-10 renal
BT-549 breast = system: BT-549 breast
HCC-2998 colon = system: HCC-2998 colon
SF-268 CNS = system: SF-268 CNS
MALME-3M melanoma = system: MALME-3M melanoma
MCF7 breast = system: MCF7 breast
SK-MEL-2 melanoma = system: SK-MEL-2 melanoma
SNB-19 CNS = system: SNB-19 CNS
PC-3 prostate = system: PC-3 prostate

Nc1nc(-c2ccccc2)c(N=Nc2ccc(Cl)cc2Cl)s1
GI50 (HT29 colon): 3.31 µM | TGI (HT29 colon): 10.9 µM | GI50 (OVCAR-3 ovarian): 3.57 µM | TGI (OVCAR-3 ovarian): 13.2 µM | GI50 (LOX IMVI melanoma): 1.83 µM | TGI (LOX IMVI melanoma): 5.17 µM | GI50 (OVCAR-8 ovarian): 5.82 µM | TGI (OVCAR-8 ovarian): 18.7 µM | GI50 (SF-295 CNS): 3.23 µM | TGI (SF-295 CNS): 13.2 µM | GI50 (KM12 colon): 2.99 µM | TGI (KM12 colon): 12.8 µM | GI50 (UACC-257 melanoma): 4.13 µM | TGI (UACC-257 melanoma): 16.3 µM | GI50 (RXF 393 renal): 3.02 µM | TGI (RXF 393 renal): 11.7 µM | GI50 (SK-OV-3 ovarian): 3.86 µM | TGI (SK-OV-3 ovarian): 16.3 µM | GI50 (SW-620 colon): 2.88 µM | TGI (SW-620 colon): 13.5 µM | GI50 (SK-MEL-28 melanoma): 4.69 µM | TGI (SK-MEL-28 melanoma): 16.5 µM | GI50 (A549 NSCLC): 3.67 µM | TGI (A549 NSCLC): 14.7 µM | GI50 (UACC-62 melanoma): 2.45 µM | TGI (UACC-62 melanoma): 12 µM | GI50 (MDA-MB-468 breast): 0.83 µM | TGI (MDA-MB-468 breast): 3.88 µM | GI50 (MOLT-4 leukemia): 2.73 µM | TGI (MOLT-4 leukemia): 10.3 µM | GI50 (HCT-15 colon): 2.81 µM | TGI (HCT-15 colon): 11.7 µM | GI50 (NCI/ADR-RES ovarian): 3.03 µM | TGI (NCI/ADR-RES ovarian): 10.9 µM | GI50 (SF-539 CNS): 2.78 µM | TGI (SF-539 CNS): 10.5 µM | GI50 (MDA-MB-435): 3.74 µM | TGI (MDA-MB-435): 14.4 µM | GI50 (T-47D breast): 1.03 µM | TGI (T-47D breast): 6.56 µM | GI50 (NCI-H23 lung): 2.91 µM | TGI (NCI-H23 lung): 13.5 µM | GI50 (TK-10 renal): 5.25 µM | TGI (TK-10 renal): 14.9 µM | GI50 (BT-549 breast): 2.43 µM | TGI (BT-549 breast): 9.74 µM | GI50 (HCC-2998 colon): 1.84 µM | TGI (HCC-2998 colon): 5.41 µM | GI50 (SF-268 CNS): 4.91 µM | TGI (SF-268 CNS): 17.8 µM | GI50 (MALME-3M melanoma): 5.38 µM | TGI (MALME-3M melanoma): 18.1 µM | GI50 (MCF7 breast): 2.16 µM | TGI (MCF7 breast): 10.9 µM | GI50 (SK-MEL-2 melanoma): 3.03 µM | TGI (SK-MEL-2 melanoma): 12.8 µM | GI50 (SNB-19 CNS): 6.02 µM | TGI (SNB-19 CNS): 18.7 µM | GI50 (PC-3 prostate): 3.16 µM
